Key:
[1] = tested on: large (Lg) crabgrass; experiment: Test A postemergence; format: in vivo, Digitaria sanguinalis; settings: 0 to 100 scale where 0 is no effect and 100 is complete control; for Crabgrass, Large plant response rating: 125 g ai/ha; for Plant response rating, Crabgrass, Large: 500 g ai/ha
Method in brief: (§1)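 Pre- and postemergence greenhouse screen. Soil: loam + sand. Spray carrier: solvent mixture, non-phytotoxic, with surfactant. Post timing at 1–2 leaves, height 2–10 cm. Readout: visual injury on a 0–100 scale roughly 10 days after application, untreated plants as reference.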

[2] = tested on: yellow nutsedge; experiment: Test C postemergence; format: in vivo, Cyperus esculentus; settings: for Nutsedge, Yellow plant response rating: 31 g ai/ha; for Nutsedge, Yellow plant response rating / Plant response rating, Nutsedge, Yellow: scale 0 to 100 (0 no effect, 100 complete control)
Method in brief: (§2)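 Visual injury score versus untreated controls, 0 = no effect, 100 = complete control, taken 13 to 15 days after treatment in the greenhouse. Pre-emergence pots held loam/sand; post-emergence plants grew in sphagnum peat/vermiculite mix and were sprayed at the 1- to 4-leaf stage.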

[3] = tested on: chickweed; experiment: Test C postemergence; format: in vivo, Stellaria media; settings: for Chickweed plant response rating: 31 g ai/ha; for Chickweed plant response rating / Plant response rating, Chickweed: scale 0 to 100 (0 no effect, 100 complete control)
Method in brief: as §2

[4] = tested on: large (Lg) crabgrass; experiment: Test C preemergence; format: in vivo, Digitaria sanguinalis; settings: for Crabgrass, Large plant response rating: preemergence; for Plant response rating, Crabgrass, Large: Preemergence, scale 0 to 100, 0 no effect, 100 complete control
Method in brief: as §2

[5] = tested on: soybean; experiment: Test C postemergence; format: in vivo, Glycine max; settings: for Soybean plant response rating: 31 g ai/ha; for Soybean plant response rating / Plant response rating, Soybean: scale 0 to 100 (0 no effect, 100 complete control)
Method in brief: as §2

[6] = tested on: galium; experiment: Test C preemergence; format: in vivo, Galium aparine; settings: for Galium plant response rating: preemergence; for Plant response rating, Galium: Preemergence, scale 0 to 100, 0 no effect, 100 complete control
Method in brief: as §2

[7] = tested on: waterhemp; experiment: Test C postemergence; format: in vivo, Amaranthus rudis; settings: for Waterhemp plant response rating: 31 g ai/ha; for Waterhemp plant response rating / Plant response rating, Waterhemp: scale 0 to 100 (0 no effect, 100 complete control)
Method in brief: as §2

[8] = tested on: giant foxtail; experiment: Test C postemergence; format: in vivo, Setaria faberii; settings: for Foxtail, Giant plant response rating: 31 g ai/ha; for Foxtail, Giant plant response rating / Plant response rating, Foxtail, Giant: scale 0 to 100 (0 no effect, 100 complete control)
Method in brief: as §2

[9] = tested on: lambsquarters; experiment: Test C preemergence; format: in vivo, Chenopodium album; settings: for Lambsquarters plant response rating: preemergence; for Plant response rating, Lambsquarters: Preemergence, scale 0 to 100, 0 no effect, 100 complete control
Method in brief: as §2

[10] = tested on: johnsongrass; experiment: Test C postemergence; format: in vivo, Sorghum halepense; settings: for Johnsongrass plant response rating: 31 g ai/ha; for Johnsongrass plant response rating / Plant response rating, Johnsongrass: scale 0 to 100 (0 no effect, 100 complete control)
Method in brief: as §2

[11] = tested on: giant foxtail; experiment: Test C preemergence; format: in vivo, Setaria faberii; settings: for Foxtail, Giant plant response rating: preemergence; for Plant response rating, Foxtail, Giant: Preemergence, scale 0 to 100, 0 no effect, 100 complete control
Method in brief: as §2

[12] = tested on: yellow nutsedge; experiment: Test C preemergence; format: in vivo, Cyperus esculentus; settings: for Nutsedge, Yellow plant response rating: preemergence; for Plant response rating, Nutsedge, Yellow: Preemergence, scale 0 to 100, 0 no effect, 100 complete control
Method in brief: as §2

[13] = tested on: johnsongrass; experiment: Test C preemergence; format: in vivo, Sorghum halepense; settings: for Johnsongrass plant response rating: preemergence; for Plant response rating, Johnsongrass: Preemergence, scale 0 to 100, 0 no effect, 100 complete control
Method in brief: as §2

[14] = tested on: giant foxtail; experiment: Test A preemergence; format: in vivo, Setaria faberii; settings: for Foxtail, Giant plant response rating: 500 g ai/ha
Method in brief: as §1

[15] = 16 g ai/ha, postemergence, 0 is no effect, 100 is complete control
[16] = postemergence, visual rating, 13 to 15 days
[17] = 125 g ai/ha, postemergence, visual rating
[18] = 16 g ai/ha, scale 0 to 100 (0 no effect, 100 complete control)
[19] = 62 g ai/ha, scale 0 (no effect) to 100 (complete control)
[20] = 125 g ai/ha, scale 0 (no effect) to 100 (complete control)
[21] = 0 to 100 scale where 0 is no effect and 100 is complete control
[22] = Postemergence, 62 g ai/ha, 13 to 15 days
[23] = 250 g ai/ha, scale 0 (no effect) to 100 (complete control)

Structure (SMILES): FC(F)(F)c1cnn(-c2c(Cl)cccc2Oc2ncc(Cl)cn2)c1 [Compound 167]
- Crabgrass, Large plant response rating [1]: 80
- Plant response rating, Crabgrass, Large [1]: 90
- Plant response rating (0 to 100), Nutsedge, Yellow [2, 15]: 0
- Nutsedge, Yellow plant response rating [2, 16]: 0
- Plant response rating, Nutsedge, Yellow [2, 17]: 20
- Plant response rating, Nutsedge, Yellow ([2]; Postemergence, 62 g ai/ha): 5
- Plant response rating (0 to 100), Chickweed [3, 15]: 55
- Chickweed plant response rating [3, 16]: 80
- Plant response rating, Chickweed [3, 17]: 80
- Plant response rating, Chickweed ([3]; Postemergence, 62 g ai/ha): 70
- Crabgrass, Large plant response rating [4, 18]: 75
- Crabgrass, Large plant response rating [4, 19]: 100
- Crabgrass, Large plant response rating [4, 20]: 100
- Plant response rating, Crabgrass, Large ([4]; 31 g ai/ha): 98
- Plant response rating (0 to 100), Soybean [5, 15]: 20
- Soybean plant response rating [5, 16]: 30
- Plant response rating, Soybean [5, 17]: 60
- Plant response rating, Soybean ([5]; Postemergence, 62 g ai/ha): 60
- Galium plant response rating [6, 18]: 98
- Galium plant response rating [6, 19]: 100
- Galium plant response rating [6, 20]: 100
- Plant response rating, Galium ([6]; 31 g ai/ha): 100
- Plant response rating (0 to 100), Waterhemp [7, 15]: 65
- Waterhemp plant response rating [7, 16]: 75
- Plant response rating, Waterhemp [7, 17]: 98
- Plant response rating, Waterhemp ([7]; Postemergence, 62 g ai/ha): 85
- Plant response rating (0 to 100), Foxtail, Giant [8, 15]: 10
- Foxtail, Giant plant response rating [8, 16]: 10
- Plant response rating, Foxtail, Giant [8, 17]: 30
- Plant response rating, Foxtail, Giant ([8]; Postemergence, 62 g ai/ha): 10
- Lambsquarters plant response rating [9, 18]: 75
- Lambsquarters plant response rating [9, 19]: 100
- Lambsquarters plant response rating [9, 20]: 100
- Plant response rating (0 to 100), Johnsongrass [10, 15]: 5
- Johnsongrass plant response rating [10, 16]: 15
- Plant response rating, Johnsongrass [10, 17]: 25
- Plant response rating, Johnsongrass ([10]; Postemergence, 62 g ai/ha): 15
- Foxtail, Giant plant response rating [11, 18]: 35
- Foxtail, Giant plant response rating [11, 19]: 100
- Foxtail, Giant plant response rating [11, 20]: 100
- Plant response rating, Foxtail, Giant ([11]; 31 g ai/ha): 95
- Nutsedge, Yellow plant response rating [12, 18]: 0
- Nutsedge, Yellow plant response rating [12, 19]: 10
- Nutsedge, Yellow plant response rating [12, 20]: 60
- Johnsongrass plant response rating [13, 18]: 5
- Johnsongrass plant response rating [13, 19]: 80
- Johnsongrass plant response rating [13, 20]: 95
- Plant response rating, Foxtail, Giant ([14]; 125 g ai/ha, 0 to 100 scale where 0 is no effect and 100 is complete control): 100
- Foxtail, Giant plant response rating [14, 21]: 100

Structure (SMILES): N#Cc1cnn(-c2c(Oc3ncc(Cl)cn3)cccc2C(F)F)c1 [Compound 236]
- Crabgrass, Large plant response rating [1]: 80
- Plant response rating, Crabgrass, Large [1]: 100
- Plant response rating (0 to 100), Nutsedge, Yellow [2, 15]: 0
- Nutsedge, Yellow plant response rating [2, 16]: 0
- Plant response rating, Nutsedge, Yellow [2, 17]: 5
- Plant response rating, Nutsedge, Yellow [2, 22]: 0
- Plant response rating (0 to 100), Chickweed [3, 15]: 40
- Chickweed plant response rating [3, 16]: 50
- Plant response rating, Chickweed [3, 17]: 50
- Plant response rating, Chickweed [3, 22]: 65
- Crabgrass, Large plant response rating [4, 18]: 90
- Crabgrass, Large plant response rating [4, 20]: 100
- Plant response rating, Crabgrass, Large ([4]; 62 g ai/ha): 100
- Plant response rating (0 to 100), Soybean [5, 15]: 60
- Soybean plant response rating [5, 16]: 75
- Plant response rating, Soybean [5, 17]: 95
- Plant response rating, Soybean [5, 22]: 85
- Galium plant response rating [6, 18]: 90
- Galium plant response rating [6, 20]: 100
- Plant response rating, Galium ([6]; 62 g ai/ha): 100
- Plant response rating (0 to 100), Waterhemp [7, 15]: 70
- Waterhemp plant response rating [7, 16]: 70
- Plant response rating, Waterhemp [7, 17]: 90
- Plant response rating, Waterhemp [7, 22]: 90
- Plant response rating (0 to 100), Foxtail, Giant [8, 15]: 5
- Foxtail, Giant plant response rating [8, 16]: 50
- Plant response rating, Foxtail, Giant [8, 17]: 15
- Plant response rating, Foxtail, Giant [8, 22]: 15
- Lambsquarters plant response rating [9, 18]: 98
- Lambsquarters plant response rating [9, 20]: 100
- Plant response rating, Lambsquarters ([9]; 62 g ai/ha): 100
- Plant response rating (0 to 100), Johnsongrass [10, 15]: 10
- Johnsongrass plant response rating [10, 16]: 25
- Plant response rating, Johnsongrass [10, 17]: 20
- Plant response rating, Johnsongrass [10, 22]: 15
- Foxtail, Giant plant response rating [11, 18]: 35
- Foxtail, Giant plant response rating [11, 20]: 100
- Plant response rating, Foxtail, Giant ([11]; 62 g ai/ha): 100
- Nutsedge, Yellow plant response rating [12, 18]: 0
- Nutsedge, Yellow plant response rating [12, 20]: 75
- Plant response rating, Nutsedge, Yellow ([12]; 62 g ai/ha): 60
- Johnsongrass plant response rating [13, 18]: 5
- Johnsongrass plant response rating [13, 20]: 85
- Plant response rating, Johnsongrass ([13]; 62 g ai/ha): 60
- Foxtail, Giant plant response rating (0 to 100 scale) ([14]; 125 g ai/ha): 100
- Foxtail, Giant plant response rating [14, 21]: 100

Structure (SMILES): N#Cc1cccc(Oc2ncc(Cl)cn2)c1-n1cc(I)cn1 [Compound 204]
- Crabgrass, Large plant response rating [1]: 90
- Plant response rating, Crabgrass, Large [1]: 100
- Nutsedge, Yellow plant response rating [2, 16]: 0
- Plant response rating, Nutsedge, Yellow [2, 17]: 0
- Plant response rating (0 to 100), Nutsedge, Yellow ([2]; 250 g ai/ha, postemergence): 5
- Plant response rating, Nutsedge, Yellow [2, 22]: 10
- Chickweed plant response rating [3, 16]: 75
- Plant response rating, Chickweed [3, 17]: 98
- Plant response rating (0 to 100), Chickweed ([3]; 250 g ai/ha, postemergence): 100
- Plant response rating, Chickweed [3, 22]: 95
- Crabgrass, Large plant response rating [4, 20]: 100
- Crabgrass, Large plant response rating [4, 23]: 100
- Plant response rating, Crabgrass, Large ([4]; 62 g ai/ha): 100
- Soybean plant response rating [5, 16]: 70
- Plant response rating, Soybean [5, 17]: 95
- Plant response rating (0 to 100), Soybean ([5]; 250 g ai/ha, postemergence): 95
- Plant response rating, Soybean [5, 22]: 95
- Galium plant response rating [6, 20]: 100
- Galium plant response rating [6, 23]: 100
- Plant response rating, Galium ([6]; 62 g ai/ha): 100
- Waterhemp plant response rating [7, 16]: 85
- Plant response rating, Waterhemp [7, 17]: 90
- Plant response rating (0 to 100), Waterhemp ([7]; 250 g ai/ha, postemergence): 95
- Plant response rating, Waterhemp [7, 22]: 90
- Foxtail, Giant plant response rating [8, 16]: 5
- Plant response rating, Foxtail, Giant [8, 17]: 10
- Plant response rating (0 to 100), Foxtail, Giant ([8]; 250 g ai/ha, postemergence): 90
- Plant response rating, Foxtail, Giant [8, 22]: 5
- Lambsquarters plant response rating [9, 20]: 95
- Lambsquarters plant response rating [9, 23]: 98
- Plant response rating, Lambsquarters ([9]; 62 g ai/ha): 98
- Johnsongrass plant response rating [10, 16]: 5
- Plant response rating, Johnsongrass [10, 17]: 10
- Plant response rating (0 to 100), Johnsongrass ([10]; 250 g ai/ha, postemergence): 30
- Plant response rating, Johnsongrass [10, 22]: 5
- Foxtail, Giant plant response rating [11, 20]: 100
- Foxtail, Giant plant response rating [11, 23]: 100
- Plant response rating, Foxtail, Giant ([11]; 62 g ai/ha): 98
- Nutsedge, Yellow plant response rating [12, 20]: 60
- Nutsedge, Yellow plant response rating [12, 23]: 60
- Plant response rating, Nutsedge, Yellow ([12]; 62 g ai/ha): 0
- Johnsongrass plant response rating [13, 20]: 95
- Johnsongrass plant response rating [13, 23]: 98
- Plant response rating, Johnsongrass ([13]; 62 g ai/ha): 80
- Foxtail, Giant plant response rating (0 to 100 scale) ([14]; 125 g ai/ha): 100
- Foxtail, Giant plant response rating [14, 21]: 100

Reference: patent US9695155B2, “Herbicidal substituted pyrimidinyloxy benzene compounds” (E. I. DU PONT DE NEMOURS AND COMPANY, priority 2013, dated 2017)
